Results as given in patent US11192890B2, “FGFR kinase inhibitors and pharmaceutical uses” (AUCKLAND UNISERVICES LIMITED, priority 2017, dated 2021).
pIC50: −log10 of the molar value.

What was measured:
[1] = test system: FGFR3 in SW780 cells (phospho-ERK1/2); experiment: Drug washout Western blot assay, SW780 cells; type: cell-based; conditions: SW780; 30 min exposure, 100 nM, with and without washout
FGFR3 = molecular target: T1, FGFR3 (Homo sapiens, UniProt P22607); experiment: Isolated enzyme FRET-based Z-Lyte kinase inhibition assay; type: biochemical; conditions: means from 3 independent experiments; read-out: Isolate Enzyme Inhibition IC50, FGFR3
T1 construct: purchased Invitrogen
T1 sequence (P22607 23-806): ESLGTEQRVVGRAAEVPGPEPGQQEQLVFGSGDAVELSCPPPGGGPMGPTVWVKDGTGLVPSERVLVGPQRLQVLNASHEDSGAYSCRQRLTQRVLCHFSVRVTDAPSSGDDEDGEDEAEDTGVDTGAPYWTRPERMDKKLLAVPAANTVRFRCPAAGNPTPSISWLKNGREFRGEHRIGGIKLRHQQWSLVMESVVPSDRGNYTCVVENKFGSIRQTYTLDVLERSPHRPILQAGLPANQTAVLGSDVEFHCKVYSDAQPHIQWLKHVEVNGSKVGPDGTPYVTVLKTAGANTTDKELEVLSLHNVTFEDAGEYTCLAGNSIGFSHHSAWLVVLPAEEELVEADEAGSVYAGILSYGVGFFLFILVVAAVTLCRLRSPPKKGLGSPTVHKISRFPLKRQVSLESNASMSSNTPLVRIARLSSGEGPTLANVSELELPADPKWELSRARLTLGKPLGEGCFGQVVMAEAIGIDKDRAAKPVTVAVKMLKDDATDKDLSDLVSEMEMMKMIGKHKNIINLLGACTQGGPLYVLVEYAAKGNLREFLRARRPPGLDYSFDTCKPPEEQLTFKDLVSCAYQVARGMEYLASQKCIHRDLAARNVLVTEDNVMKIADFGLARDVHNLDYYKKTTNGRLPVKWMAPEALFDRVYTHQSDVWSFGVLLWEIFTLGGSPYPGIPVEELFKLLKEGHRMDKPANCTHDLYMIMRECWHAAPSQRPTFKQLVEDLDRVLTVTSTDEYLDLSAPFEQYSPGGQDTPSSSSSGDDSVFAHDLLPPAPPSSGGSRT
Method: (§1) FGFR1-4 and the Z-Lyte Kinase Assay Kit were purchased from Invitrogen. The concentration gradients from 5.1×10^−11 to 1.0×10^−6 mol/L were used for all the test compounds. The experiments were performed according to the instructions of the manufacturer.
(§2) FGFR1-4 isolated enzyme activity was determined using the FRET-based Z-Lyte kinase inhibition assay. The data are the means from 3 independent experiments.

FGFR1 = molecular target: T2, FGFR1 (Homo sapiens, UniProt P11362); experiment: as above; type: biochemical; conditions: means from 3 independent experiments; read-out: Isolate Enzyme Inhibition IC50, FGFR1
T2 construct: purchased Invitrogen
T2 sequence (P11362 22-822): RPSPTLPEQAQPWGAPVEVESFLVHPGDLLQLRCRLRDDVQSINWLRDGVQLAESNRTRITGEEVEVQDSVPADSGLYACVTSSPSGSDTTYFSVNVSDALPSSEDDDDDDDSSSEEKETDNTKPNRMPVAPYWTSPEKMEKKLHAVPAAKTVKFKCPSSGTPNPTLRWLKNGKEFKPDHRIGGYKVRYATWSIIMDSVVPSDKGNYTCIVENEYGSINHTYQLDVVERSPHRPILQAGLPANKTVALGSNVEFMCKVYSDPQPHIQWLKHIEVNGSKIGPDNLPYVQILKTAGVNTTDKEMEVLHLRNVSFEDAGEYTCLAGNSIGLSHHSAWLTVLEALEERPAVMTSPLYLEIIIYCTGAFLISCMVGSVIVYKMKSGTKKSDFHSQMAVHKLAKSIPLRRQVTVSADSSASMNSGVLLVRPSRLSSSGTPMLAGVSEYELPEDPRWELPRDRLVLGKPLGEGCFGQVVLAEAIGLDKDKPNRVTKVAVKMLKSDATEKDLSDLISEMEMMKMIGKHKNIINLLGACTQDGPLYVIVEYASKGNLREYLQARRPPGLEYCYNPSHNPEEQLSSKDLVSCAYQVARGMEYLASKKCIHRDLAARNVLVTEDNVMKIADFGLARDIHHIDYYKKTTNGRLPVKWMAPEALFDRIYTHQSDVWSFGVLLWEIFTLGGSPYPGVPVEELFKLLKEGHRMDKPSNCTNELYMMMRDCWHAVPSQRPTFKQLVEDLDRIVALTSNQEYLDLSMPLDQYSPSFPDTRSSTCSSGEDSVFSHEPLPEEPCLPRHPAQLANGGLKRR
Method: as §1, §2

FGFR2 = molecular target: T3, FGFR2 (Homo sapiens, UniProt P21802); experiment: as above; type: biochemical; conditions: means from 3 independent experiments; read-out: Isolate Enzyme Inhibition IC50, FGFR2
T3 construct: purchased Invitrogen
T3 sequence (P21802 22-821): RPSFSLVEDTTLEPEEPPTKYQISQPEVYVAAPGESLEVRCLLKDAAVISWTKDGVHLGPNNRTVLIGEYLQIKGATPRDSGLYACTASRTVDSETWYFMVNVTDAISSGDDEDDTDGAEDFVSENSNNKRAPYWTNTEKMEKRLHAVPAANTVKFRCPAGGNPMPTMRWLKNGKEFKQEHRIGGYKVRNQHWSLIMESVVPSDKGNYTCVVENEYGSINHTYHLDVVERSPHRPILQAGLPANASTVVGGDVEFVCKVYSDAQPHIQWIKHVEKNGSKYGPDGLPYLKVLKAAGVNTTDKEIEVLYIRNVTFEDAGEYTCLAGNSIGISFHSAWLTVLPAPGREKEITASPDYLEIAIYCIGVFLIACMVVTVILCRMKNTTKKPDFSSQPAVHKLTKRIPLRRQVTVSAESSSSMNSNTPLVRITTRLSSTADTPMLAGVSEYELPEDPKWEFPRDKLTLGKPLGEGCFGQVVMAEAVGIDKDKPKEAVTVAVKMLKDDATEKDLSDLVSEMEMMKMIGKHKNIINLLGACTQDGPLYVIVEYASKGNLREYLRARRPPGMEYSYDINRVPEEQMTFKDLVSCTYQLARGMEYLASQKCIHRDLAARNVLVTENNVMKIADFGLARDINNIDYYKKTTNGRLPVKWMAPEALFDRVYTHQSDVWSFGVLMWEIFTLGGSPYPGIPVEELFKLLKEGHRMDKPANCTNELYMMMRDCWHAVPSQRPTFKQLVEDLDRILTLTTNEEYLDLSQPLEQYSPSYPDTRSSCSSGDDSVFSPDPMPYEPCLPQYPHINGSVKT
Method: as §1, §2

[2] = test system: FGFR1 in H520 cells (phospho-ERK1/2); experiment: Drug washout Western blot assay, H520 cells; type: cell-based; conditions: H520; 30 min exposure, 100 nM, with and without washout

CNc1ncc2c(n1)N(C1CCN(C(=O)/C=C/CN3CCOCC3)CC1)C(=O)N(c1c(Cl)c(OC)cc(OC)c1Cl)C2 [Compound 123, (E)-3-(2,6-dichloro-3,5-dimethoxyphenyl)-7-(methylamino)-1-(1-(4-morpholinobut-2-enoyl)piperidin-4-yl)-3,4-dihydropyrimido[4,5-d]pyrimidin-2(1H)-one]
reversible or irreversible inhibition of FGFR3 in cells [1]: potent reversible inhibitors | pIC50 (FGFR3): 8.08 | pIC50 (FGFR1): 9.15 | pIC50 (FGFR2): 8.57

CNc1ncc2c(n1)N(C1CCC(NC(=O)/C=C/CN(C)C)CC1)C(=O)N(c1c(Cl)c(OC)cc(OC)c1Cl)C2 (stereo not shown) [Compound 126, (E)-N-(4-(3-(2,6-dichloro-3,5-dimethoxyphenyl)-7-(methylamino)-2-oxo-3,4-dihydropyrimido[4,5-d]pyrimidin-1(2H)-yl)cyclohexyl)-4-(dimethylamino)but-2-enamide]
reversible or irreversible inhibition of FGFR3 in cells [1]: potent reversible inhibitors | pIC50 (FGFR3): 8.17 | pIC50 (FGFR1): 9.30 | pIC50 (FGFR2): 8.82

COc1cc(OC)c(Cl)c(-c2cc3cnc(NC(C)C)nc3n(C3CCN(C(=O)/C=C/CN(C)C)CC3)c2=O)c1Cl [Compound 133, (E)-6-(2,6-dichloro-3,5-dimethoxyphenyl)-8-(1-(4-(dimethylamino)but-2-enoyl)piperidin-4-yl)-2-(isopropylamino)pyrido[2,3-d]pyrimidin-7(8H)-one]
reversible or irreversible inhibition of FGFR3 in cells [1]: potent irreversible inhibitors | reversible or irreversible inhibition of FGFR1 in cells [2]: potent irreversible inhibitors | pIC50 (FGFR3): 7.96 | pIC50 (FGFR1): 9.00 | pIC50 (FGFR2): 8.82

COc1cc(OC)c(Cl)c(-c2cc3cnc(NCC4CCOCC4)nc3n(C3CCN(C(=O)/C=C/CN(C)C)CC3)c2=O)c1Cl [Compound 137, (E)-6-(2,6-dichloro-3,5-dimethoxyphenyl)-8-(1-(4-(dimethylamino)but-2-enoyl)piperidin-4-yl)-2-(((tetrahydro-2H-pyran-4-l)methyl)amino)pyrido[2,3-d]pyrimidin-7(8H)-one]
reversible or irreversible inhibition of FGFR3 in cells [1]: potent reversible inhibitors | pIC50 (FGFR3): 8.21 | pIC50 (FGFR1): 9.15 | pIC50 (FGFR2): 8.74

CNc1cc2c(cn1)cc(-c1c(Cl)c(OC)cc(OC)c1Cl)c(=O)n2C1CCN(C(=O)/C=C/CN(C)C)CC1 [Compound 148, (E)-3-(2,6-dichloro-3,5-dimethoxyphenyl)-1-(1-(4-(dimethylamino)but-2-enoyl)piperidin-4-yl)-7-(methylamino)-1,6-naphthyridin-2(1H)-one]
melting point: 209 to 212 °C

COc1cc(OC)c(Cl)c(-c2cc3cnc(NC(C)C)cc3n(C3CCN(C(=O)/C=C/CN(C)C)CC3)c2=O)c1Cl [Compound 149, (E)-3-(2,6-dichloro-3,5-dimethoxyphenyl)-1-(1-(4-(dimethylamino)but-2-enoyl)piperidin-4-yl)-7-(isopropylamino)-1,6-naphthyridin-2(1H)-one]
melting point: 243 to 246 °C

COc1cc(OC)c(Br)c(N2Cc3cnc(NC(C)C)nc3N(C3CCN(C(=O)/C=C/CN(C)C)CC3)C2=O)c1Br [Compound 151, (E)-3-(2,6-dibromo-3,5-dimethoxyphenyl)-1-(1-(4-(dimethylamino)but-2-enoyl)piperidin-4-yl)-7-(isopropylamino)-3,4-dihydropyrimido[4,5-d]pyrimidin-2(1H)-one]
reversible or irreversible inhibition of FGFR1 in cells [2]: reversible binding characteristics | pIC50 (FGFR3): 7.46 | pIC50 (FGFR1): 8.38 | pIC50 (FGFR2): 8.46

COc1cc(OC)c(Br)c(-c2cc3cnc(Nc4ccccc4)nc3n(C3CCN(C(=O)/C=C/CN(C)C)CC3)c2=O)c1Br [Compound 152, (E)-6-(2,6-dibromo-3,5-dimethoxyphenyl)-8-(1-(4-(dimethylamino)but-2-enoyl)piperidin-4-yl)-2-(phenylamino)pyrido[2,3-d]pyrimidin-7(8H)-one]
reversible or irreversible inhibition of FGFR1 in cells [2]: potent irreversible inhibitors | pIC50 (FGFR3): 8.70 | pIC50 (FGFR1): 9.15 | pIC50 (FGFR2): 8.96

COc1cc(OC)c(Br)c(-c2cc3cnc(NC(C)C)nc3n(C3CCN(C(=O)/C=C/CN(C)C)CC3)c2=O)c1Br [Compound 153, (E)-6-(2,6-dibromo-3,5-dimethoxyphenyl)-8-(1-(4-(dimethylamino)but-2-enoyl)piperidin-4-yl)-2-(isopropylamino)pyrido[2,3-d]pyrimidin-7(8H)-one]
reversible or irreversible inhibition of FGFR1 in cells [2]: potent irreversible inhibitors | pIC50 (FGFR3): 8.12 | pIC50 (FGFR1): 9.10 | pIC50 (FGFR2): 9.00

COc1cc(OC)c(Br)c(-c2cc3cnc(NC(C)C)cc3n(C3CCN(C(=O)/C=C/CN(C)C)CC3)c2=O)c1Br [Compound 155, (E)-3-(2,6-dibromo-3,5-dimethoxyphenyl)-1-(1-(4-(dimethylamino)but-2-enoyl)piperidin-4-yl)-7-(isopropylamino)-1,6-naphthyridin-2(1H)-one]
melting point: 251 to 254 °C

COc1cc(OC)c(Cl)c(N2Cc3cnc(Nc4ccccn4)nc3N(C3CCN(C(=O)/C=C/CN(C)C)CC3)C2=O)c1Cl [Compound 157, (E)-3-(2,6-dichloro-3,5-dimethoxyphenyl)-1-(1-(4-(dimethylamino)but-2-enoyl)piperidin-4-yl)-7-(pyridin-2-ylamino)-3,4-dihydropyrimido[4,5-d]pyrimidin-2(1H)-one]
melting point: 224 to 227 °C

COc1cc(OC)c(Cl)c(N2Cc3cnc(Nc4cccnc4)nc3N(C3CCN(C(=O)/C=C/CN(C)C)CC3)C2=O)c1Cl [Compound 158, (E)-3-(2,6-dichloro-3,5-dimethoxyphenyl)-1-(1-(4-(dimethylamino)but-2-enoyl)piperidin-4-yl)-7-(pyridin-3-ylamino)-3,4-dihydropyrimido[4,5-d]pyrimidin-2(1H)-one]
melting point: 207 to 209 °C

COc1cc(OC)c(Cl)c(N2Cc3cnc(Nc4ccncc4)nc3N(C3CCN(C(=O)/C=C/CN(C)C)CC3)C2=O)c1Cl [Compound 159, (E)-3-(2,6-dichloro-3,5-dimethoxyphenyl)-1-(1-(4-(dimethylamino)but-2-enoyl)piperidin-4-yl)-7-(pyridin-4-ylamino)-3,4-dihydropyrimido[4,5-d]pyrimidin-2(1H)-one]
melting point: > 300 °C

COc1cc(OC)c(Cl)c(N2Cc3cnc(Nc4ccn(C)n4)nc3N(C3CCN(C(=O)/C=C/CN(C)C)CC3)C2=O)c1Cl [Compound 160, (E)-3-(2,6-dichloro-3,5-dimethoxyphenyl)-1-(1-(4-(dimethylamino)but-2-enoyl)piperidin-4-yl)-7-((1-methyl-1H-pyrazol-3-yl)amino)-3,4-dihydropyrimido[4,5-d]pyrimidin-2(1H)-one]
melting point: 203 °C

COc1cc(OC)c(Cl)c(-c2cc3cnc(Nc4ccccc4)cc3n(C3CCN(C(=O)/C=C/CN(C)C)CC3)c2=O)c1Cl [Compound 232, (E)-3-(2,6-dichloro-3,5-dimethoxyphenyl)-1-(1-(4-(dimethylamino)but-2-enoyl)piperidin-4-yl)-7-(phenylamino)-1,6-naphthyridin-2(1H)-one]
melting point: 230 to 233 °C
